Assay results as given in US20120100990A1, “4 -AMINOPICOLINATES AND THEIR USE AS HERBICIDES” (SYNGENTA CROP PROTECTION LLC, priority 2009, published 2012).

Assays:
Format in all cases: in vivo
[1] = tested on: Alopecurus myosuroides (ALOMY); assay: Post-emergence biological efficacy, glasshouse pot test; details: 312 h, 1,000 g/ha, evaluated after 13 days, 100=total damage, 0=no damage, read-out: Percentage damage caused to weed species, post-emergence, ALOMY
How it was run: (§1)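 Weeds grown 8 days in glasshouse pots (24/16 °C, 14 h light, 65% humidity) were sprayed with compound in acetone/water plus 0.5% Tween 20 at 1000 or 250 g/ha. Damage was scored 13 days later on a 0–100 scale (100 = total damage).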

[2] = tested on: Ipomea hederaceae (IPOHE); assay: as above; details: Ipomoea hederacea, 312 h, 1,000 g/ha, evaluated after 13 days, 100=total damage, 0=no damage, read-out: Percentage damage caused to weed species, post-emergence, IPOHE
How it was run: as §1

[3] = tested on: Setaria faberi (SETFA); assay: as above; details: 312 h, 1,000 g/ha, evaluated after 13 days, 100=total damage, 0=no damage, read-out: Percentage damage caused to weed species, post-emergence, SETFA
How it was run: as §1

[4] = tested on: Solanum nigrum (SOLNI); assay: as above; details: 312 h, 1,000 g/ha, evaluated after 13 days, 100=total damage, 0=no damage, read-out: Percentage damage caused to weed species, post-emergence, SOLNI
How it was run: as §1

[5] = tested on: Amaranthus retroflexus (AMARE); assay: as above; details: 312 h, 1,000 g/ha, evaluated after 13 days, 100=total damage, 0=no damage, read-out: Percentage damage caused to weed species, post-emergence, AMARE
How it was run: as §1

[6] = tested on: Echinochloa crus-galli (ECHCG); assay: as above; details: 312 h, 1,000 g/ha, evaluated after 13 days, 100=total damage, 0=no damage, read-out: Percentage damage caused to weed species, post-emergence, ECHCG
How it was run: as §1

[7] = tested on: Alopecurus myosuroides (ALOMY); assay: Pre-emergence biological efficacy, glasshouse pot test; details: 312 h, 1,000 g/ha, evaluated after 13 days, 100=total damage, 0=no damage, read-out: Percentage damage caused to weed species, pre-emergence, ALOMY
How it was run: (§2)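 Pre-emergence spray, day 1 post-sowing; 1000 or 250 g/ha in acetone/water 50:50 + 0.5% Tween 20. Glasshouse 24/16 °C, 14 h light, 65% RH, watered twice daily. Visual damage score at 13 d, 0–100.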

[8] = tested on: Ipomea hederaceae (IPOHE); assay: as above; details: Ipomoea hederacea, 312 h, 1,000 g/ha, evaluated after 13 days, 100=total damage, 0=no damage, read-out: Percentage damage caused to weed species, pre-emergence, IPOHE
How it was run: as §2

[9] = tested on: Setaria faberi (SETFA); assay: as above; details: 312 h, 1,000 g/ha, evaluated after 13 days, 100=total damage, 0=no damage, read-out: Percentage damage caused to weed species, pre-emergence, SETFA
How it was run: as §2

[10] = tested on: Solanum nigrum (SOLNI); assay: as above; details: 312 h, 1,000 g/ha, evaluated after 13 days, 100=total damage, 0=no damage, read-out: Percentage damage caused to weed species, pre-emergence, SOLNI
How it was run: as §2

[11] = tested on: Amaranthus retroflexus (AMARE); assay: as above; details: 312 h, 1,000 g/ha, evaluated after 13 days, 100=total damage, 0=no damage, read-out: Percentage damage caused to weed species, pre-emergence, AMARE
How it was run: as §2

[12] = tested on: Echinochloa crus-galli (ECHCG); assay: as above; details: 312 h, 1,000 g/ha, evaluated after 13 days, 100=total damage, 0=no damage, read-out: Percentage damage caused to weed species, pre-emergence, ECHCG
How it was run: as §2

## C=Cc1c(NCc2ccco2)cc(Cl)nc1C(=O)O [Compound 26-11, 6-chloro-3-ethenyl-4-[(furan-2-ylmethyl)-amino]-pyridine-2-carboxylic acid]
[1]
  pest or weed control at 1000 g/ha: 80%
[2]
  pest or weed control at 1000 g/ha: 80%
[3]
  pest or weed control at 1000 g/ha: 90%
[4]
  pest or weed control at 1000 g/ha: 100%
[5]
  pest or weed control at 1000 g/ha: 100%
[6]
  pest or weed control at 1000 g/ha: 80%
[7]
  pest or weed control at 1000 g/ha: 100%
[8]
  pest or weed control at 1000 g/ha: 100%
[9]
  pest or weed control at 1000 g/ha: 100%
[10]
  pest or weed control at 1000 g/ha: 100%
[11]
  pest or weed control at 1000 g/ha: 100%
[12]
  pest or weed control at 1000 g/ha: 90%

## C=Cc1c(NCc2ccco2)cc(Cl)nc1C(=O)OC [Compound 26-12, 6-Chloro-3-ethenyl-4-[(furan-2-ylmethyl)-amino]-pyridine-2-carboxylic acid methyl ester]
[1]
  pest or weed control at 1000 g/ha: 80%
[2]
  pest or weed control at 1000 g/ha: 70%
[3]
  pest or weed control at 1000 g/ha: 90%
[4]
  pest or weed control at 1000 g/ha: 100%
[5]
  pest or weed control at 1000 g/ha: 100%
[6]
  pest or weed control at 1000 g/ha: 80%
[7]
  pest or weed control at 1000 g/ha: 90%
[8]
  pest or weed control at 1000 g/ha: 90%
[9]
  pest or weed control at 1000 g/ha: 100%
[10]
  pest or weed control at 1000 g/ha: 100%
[11]
  pest or weed control at 1000 g/ha: 100%
[12]
  pest or weed control at 1000 g/ha: 90%

## COC(=O)c1nc(Cl)cc(NCc2ccco2)c1Br [Compound 26-17, 3-Bromo-6-chloro-4-[(furan-2-ylmethyl)-amino]-pyridine-2-carboxylic acid methyl ester]
[1]
  pest or weed control at 1000 g/ha: 70%
[2]
  pest or weed control at 1000 g/ha: 60%
[3]
  pest or weed control at 1000 g/ha: 80%
[4]
  pest or weed control at 1000 g/ha: 90%
[5]
  pest or weed control at 1000 g/ha: 100%
[6]
  pest or weed control at 1000 g/ha: 60%
[7]
  pest or weed control at 1000 g/ha: 50%
[8]
  pest or weed control at 1000 g/ha: 100%
[9]
  pest or weed control at 1000 g/ha: 80%
[10]
  pest or weed control at 1000 g/ha: 100%
[11]
  pest or weed control at 1000 g/ha: 100%
[12]
  pest or weed control at 1000 g/ha: 50%

## COC(=O)c1nc(Cl)cc(NCc2ccco2)c1C [Compound 26-19, 6-chloro-4-[(furan-2-ylmethyl)-amino]-3-methyl-pyridine-2-carboxylic acid methyl ester]
[1]
  pest or weed control at 1000 g/ha: 60%
[2]
  pest or weed control at 1000 g/ha: 40%
[3]
  pest or weed control at 1000 g/ha: 70%
[4]
  pest or weed control at 1000 g/ha: 90%
[5]
  pest or weed control at 1000 g/ha: 100%
[6]
  pest or weed control at 1000 g/ha: 30%
[7]
  pest or weed control at 1000 g/ha: 70%
[8]
  pest or weed control at 1000 g/ha: 40%
[9]
  pest or weed control at 1000 g/ha: 70%
[10]
  pest or weed control at 1000 g/ha: 100%
[11]
  pest or weed control at 1000 g/ha: 100%
[12]
  pest or weed control at 1000 g/ha: 0%

## COC(=O)c1nc(C2CC2)cc(NCc2ccco2)c1Cl [Compound 26-83, 3-chloro-6-cyclopropyl-4-[(furan-2-ylmethyl)-amino]-pyridine-2-carboxylic acid methyl ester]
[1]
  pest or weed control at 1000 g/ha: 0%
[2]
  pest or weed control at 1000 g/ha: 100%
[3]
  pest or weed control at 1000 g/ha: 0%
[4]
  pest or weed control at 1000 g/ha: 90%
[5]
  pest or weed control at 1000 g/ha: 100%
[6]
  pest or weed control at 1000 g/ha: 0%
[7]
  pest or weed control at 1000 g/ha: 40%
[8]
  pest or weed control at 1000 g/ha: 100%
[9]
  pest or weed control at 1000 g/ha: 20%
[10]
  pest or weed control at 1000 g/ha: 100%
[11]
  pest or weed control at 1000 g/ha: 100%
[12]
  pest or weed control at 1000 g/ha: 20%

## COC(=O)c1nc(-c2ccc(Cl)c(OC)c2F)cc(NCc2ccco2)c1Cl [Compound 26-164, 3-chloro-6-(4-chloro-2-fluoro-3-methoxy-phenyl)-4-[(furan-2-ylmethyl)-amino]-pyridine-2-carboxylic acid methyl ester]
[1]
  pest or weed control at 1000 g/ha: 70%
[2]
  pest or weed control at 1000 g/ha: 90%
[3]
  pest or weed control at 1000 g/ha: 90%
[4]
  pest or weed control at 1000 g/ha: 100%
[5]
  pest or weed control at 1000 g/ha: 100%
[6]
  pest or weed control at 1000 g/ha: 70%
[7]
  pest or weed control at 1000 g/ha: 50%
[8]
  pest or weed control at 1000 g/ha: 100%
[9]
  pest or weed control at 1000 g/ha: 90%
[10]
  pest or weed control at 1000 g/ha: 100%
[11]
  pest or weed control at 1000 g/ha: 100%
[12]
  pest or weed control at 1000 g/ha: 90%

## C=Cc1c(NCc2ccco2)cc(-c2ccc(Cl)c(OC)c2F)nc1C(=O)OC [Compound 26-174, 6-(4-chloro-2-fluoro-3-methoxy-phenyl)-3-ethenyl-4-[(furan-2-ylmethyl)-amino]-pyridine-2-carboxylic acid methyl ester]
[1]
  pest or weed control at 1000 g/ha: 10%
[2]
  pest or weed control at 1000 g/ha: 50%
[3]
  pest or weed control at 1000 g/ha: 0%
[4]
  pest or weed control at 1000 g/ha: 100%
[5]
  pest or weed control at 1000 g/ha: 100%
[6]
  pest or weed control at 1000 g/ha: 20%
[7]
  pest or weed control at 1000 g/ha: 20%
[8]
  pest or weed control at 1000 g/ha: 90%
[9]
  pest or weed control at 1000 g/ha: 10%
[10]
  pest or weed control at 1000 g/ha: 90%
[11]
  pest or weed control at 1000 g/ha: 80%
[12]
  pest or weed control at 1000 g/ha: 30%

## COC(=O)c1nc(-c2ccc(Cl)c(N(C)C)c2F)cc(NCc2ccco2)c1Cl [Compound 26-245, 3-Chloro-6-(4-chloro-3-dimethylamino-2-fluoro-phenyl)-4-[(furan-2-ylmethyl)-amino]-pyridine-2-carboxylic acid methyl ester]
[1]
  pest or weed control at 1000 g/ha: 40%
[2]
  pest or weed control at 1000 g/ha: 60%
[3]
  pest or weed control at 1000 g/ha: 60%
[4]
  pest or weed control at 1000 g/ha: 90%
[5]
  pest or weed control at 1000 g/ha: 100%
[6]
  pest or weed control at 1000 g/ha: 50%
[7]
  pest or weed control at 1000 g/ha: 10%
[8]
  pest or weed control at 1000 g/ha: 60%
[9]
  pest or weed control at 1000 g/ha: 30%
[10]
  pest or weed control at 1000 g/ha: 60%
[11]
  pest or weed control at 1000 g/ha: 100%
[12]
  pest or weed control at 1000 g/ha: 30%

## C=Cc1c(NCc2ccco2)cc(-c2ccc(Cl)c(N(C)C)c2F)nc1C(=O)OC [Compound 26-255, 6-(4-Chloro-3-dimethyl-amino-2-fluoro-phenyl)-3-ethenyl-4-[(furan-2-ylmethyl)-amino]-pyridine-2-carboxylic acid methyl ester]
[1]
  pest or weed control at 1000 g/ha: 0%
[2]
  pest or weed control at 1000 g/ha: 10%
[3]
  pest or weed control at 1000 g/ha: 0%
[4]
  pest or weed control at 1000 g/ha: 70%
[5]
  pest or weed control at 1000 g/ha: 20%
[6]
  pest or weed control at 1000 g/ha: 0%
[7]
  pest or weed control at 1000 g/ha: 10%
[8]
  pest or weed control at 1000 g/ha: 10%
[9]
  pest or weed control at 1000 g/ha: 10%
[10]
  pest or weed control at 1000 g/ha: 70%
[11]
  pest or weed control at 1000 g/ha: 30%
[12]
  pest or weed control at 1000 g/ha: 20%

## CCO/C=C\c1c(NCc2ccco2)cc(-c2ccc(Cl)c(OC)c2F)nc1C(=O)OC [Compound 26-463, (Z)-6-(4-chloro-2-fluoro-3-methoxy-phenyl)-3-(2-ethoxyethenyl)-4-[(furan-2-ylmethyl)-amino]-pyridine-2-carboxylic acid methyl ester]
[1]
  pest or weed control at 1000 g/ha: 0%
[2]
  pest or weed control at 1000 g/ha: 40%
[3]
  pest or weed control at 1000 g/ha: 0%
[4]
  pest or weed control at 1000 g/ha: 60%
[5]
  pest or weed control at 1000 g/ha: 20%
[6]
  pest or weed control at 1000 g/ha: 0%
[7]
  pest or weed control at 1000 g/ha: 10%
[8]
  pest or weed control at 1000 g/ha: 0%
[9]
  pest or weed control at 1000 g/ha: 10%
[10]
  pest or weed control at 1000 g/ha: 10%
[11]
  pest or weed control at 1000 g/ha: 0%
[12]
  pest or weed control at 1000 g/ha: 10%
